Experimental data as given in patent publication US12263172B2, “Toll-like receptor agonists for use in the treatment of hepatitis b” (priority 2019, dated 2025).

Assay: Phase 1 single-ascending dose (Part 1): safety and tolerability in healthy adults
Format: in vivo, human
Method: This ongoing trial is a Phase 1 randomized, double-blind, placebo-controlled study in male and female healthy adult volunteers aged 18-55 years. All volunteers provided written, informed consent.
All volunteers were followed up for 4 weeks and safety and tolerability were continuously assessed throughout the study. All adverse events (AEs) were recorded from the time of consent to the completion visit and were graded using the DAIDS toxicity grading scale. Volunteers also underwent physical examinations, electrocardiograms, vital sign checks and clinical laboratory parameters (chemistry, haematology, urinalysis).

[1] = 1.8 mg and 1.25 mg fasted pooled

## CCCCOc1nc(N)c2[nH]cc(Cc3ccc(CN4CCCC4)cc3)c2n1 [Compound 4]
1.25 mg and 1.8 mg fasted
  time within which fever and flu-like symptoms resolved: 24 to 48 h
1.25 mg fasted and 1.8 mg
  time within which low lymphocyte count resolved: ≤ 72 h
[1]
  subjects with treatment-related headache overall: 5 subjects
  subjects with treatment-related pyrexia overall: 5 subjects
Part 1, all single doses
  subjects with treatment-related pyrexia grade 1: 3 subjects
  subjects with treatment-related pyrexia grade 2: 2 subjects
Part 1 and Part 2
  deaths, other SAEs, or AEs of at least grade 3: no deaths, other SAEs, or AEs of at least grade 3 occurred
All tested single doses
  serious AEs or dose-limiting toxicities: no serious AEs or dose-limiting toxicities
Single dose 0.2 mg fasted
  Any AE (treatment-emergent): 4 (67) n (%)
  Back pain Grade 1 (treatment-emergent AE): 0 n (%)
  Chills Grade 1 (treatment-emergent AE): 0 n (%)
  Contact dermatitis Grade 1 (treatment-emergent AE): 2 (33) n (%)
  Dizziness Grade 1 (treatment-emergent AE): 1 (17) n (%)
  ECG actual value: Heart rate (bpm) Low: 1 (16.7%) n (%)
  ECG actual value: QRS (ms) High: 0 n (%)
  ECG actual value: QTcB (ms) ]450; 480]: 0 n (%)
  ECG actual value: QTcF (ms) ]450; 480]: 0 n (%)
  ECG change from reference: QTcB (ms) [30; 60]: 0 n (%)
  ECG change from reference: QTcF (ms) [30; 60]: 0 n (%)
  Headache Grade 1 (treatment-emergent AE): 1 (17) n (%)
  Headache Grade 2 (treatment-emergent AE): 0 n (%)
  Hypertension Grade 1 (treatment-emergent AE): 0 n (%)
  Hypertension Grade 2 (treatment-emergent AE): 0 n (%)
  Myalgia Grade 1 (treatment-emergent AE): 0 n (%)
  Oropharyngeal pain Grade 1 (treatment-emergent AE): 0 n (%)
  Pyrexia Grade 1 (treatment-emergent AE): 0 n (%)
  Pyrexia Grade 2 (treatment-emergent AE): 0 n (%)
  URTI Grade 1 (treatment-emergent AE): 0 n (%)
  lab toxicity: Amylase (U/L), upwards, Grade 1: 0 n (%)
  lab toxicity: Amylase (U/L), upwards, Grade 2: 1 (16.7%) n (%)
  lab toxicity: Cholesterol (mmol/L), upwards, Grade 1: 0 n (%)
  lab toxicity: Cholesterol (mmol/L), upwards, Grade 2: 1 (16.7%) n (%)
  lab toxicity: Creatine kinase (U/L), upwards, Grade 1: 3 (50.0%) n (%)
  lab toxicity: Creatine kinase (U/L), upwards, Grade 2: 0 n (%)
  lab toxicity: Creatine kinase (U/L), upwards, Grade 4: 0 n (%)
  lab toxicity: Glucose (mmol/L), upwards, Grade 1: 1 (16.7%) n (%)
  lab toxicity: Glucose (mmol/L), upwards, Grade 2: 0 n (%)
  lab toxicity: LDL cholesterol (mmol/L, calculated), upwards, Grade 1: 1 (16.7%) n (%)
  lab toxicity: LDL cholesterol (mmol/L, calculated), upwards, Grade 2: 1 (16.7%) n (%)
  lab toxicity: LDL cholesterol (mmol/L, calculated), upwards, Grade 3: 0 n (%)
  lab toxicity: Lymphocytes (giga/L), downwards, Grade 2: 0 n (%)
  lab toxicity: Lymphocytes (giga/L), downwards, Grade 4: 0 n (%)
  lab toxicity: Neutrophils, segmented (giga/L), downwards, Grade 1: 0 n (%)
  lab toxicity: Neutrophils, segmented (giga/L), downwards, Grade 2: 0 n (%)
  lab toxicity: Platelets (giga/L), downwards, Grade 1: 0 n (%)
  lab toxicity: Sodium (mmol/L), upwards, Grade 1: 0 n (%)
  lab toxicity: Sodium (mmol/L), upwards, Grade 2: 0 n (%)
  lab toxicity: Triglycerides (mmol/L), upwards, Grade 1: 1 (16.7%) n (%)
  lab toxicity: Triglycerides (mmol/L), upwards, Grade 2: 2 (33.3%) n (%)
  lab toxicity: Triglycerides (mmol/L), upwards, Grade 3: 0 n (%)
  lab toxicity: Urate (μmol/L), upwards, Grade 1: 2 (33.3%) n (%)
  subjects with at least one AE for which any study drug or study was permanently stopped: 0 n (%)
  subjects with at least one AE for which any study drug or study was temporarily stopped: 0 n (%)
  subjects with at least one AE possibly related to any study drug: 0 n (%)
  subjects with at least one AE possibly, probably or very likely related to any study drug: 0 n (%)
  subjects with at least one AE probably related to any study drug: 0 n (%)
  subjects with at least one AE very likely related to any study drug: 0 n (%)
  subjects with at least one SAE: 0 n (%)
  subjects with at least one fatal AE: 0 n (%)
  subjects with at least one grade 1 AE: 4 (66.7%) n (%)
  subjects with at least one grade 2 AE: 0 n (%)
  subjects with at least one grade 3 or 4 AE: 0 n (%)
  subjects with low hematocrit levels (non-graded): 5 (83.3%) n (%)
  treatment-related AE: Any AE: 0 n (%)
  treatment-related AE: Chills: 0 n (%)
  treatment-related AE: Dizziness: 0 n (%)
  treatment-related AE: General disorders and administration site conditions: 0 n (%)
  treatment-related AE: Headache: 0 n (%)
  treatment-related AE: Hypertension: 0 n (%)
  treatment-related AE: Myalgia: 0 n (%)
  treatment-related AE: Nervous system disorders: 0 n (%)
  treatment-related AE: Oropharyngeal pain: 0 n (%)
  treatment-related AE: Pyrexia: 0 n (%)
  treatment-related AE: Respiratory, thoracic and mediastinal disorders: 0 n (%)
  treatment-related AE: Vascular disorder: 0 n (%)
  vital signs: Respiratory rate (brpm) Grade 1: 3 (50.0%) n (%)
  vital signs: Respiratory rate (brpm) Grade 2: 0 n (%)
  vital signs: SaO2 (%) 90% to <95%: 1 (16.7%) n (%)
  vital signs: SaO2 (%) 95% to <98%: 4 (66.7%) n (%)
  vital signs: Standing DBP (mmHg) Grade 1: 2 (33.3%) n (%)
  vital signs: Standing DBP (mmHg) Grade 2: 0 n (%)
  vital signs: Standing DBP (mmHg) Grade 3: 0 n (%)
  vital signs: Standing DBP (mmHg) Low: 0 n (%)
  vital signs: Standing SBP (mmHg) Grade 1: 3 (50.0%) n (%)
  vital signs: Standing SBP (mmHg) Low: 0 n (%)
  vital signs: Standing pulse (bpm) High: 3 (50.0%) n (%)
  vital signs: Standing pulse (bpm) Low: 0 n (%)
  vital signs: Supine DBP (mmHg) Grade 1: 0 n (%)
  vital signs: Supine DBP (mmHg) Low: 0 n (%)
  vital signs: Supine SBP (mmHg) Grade 1: 0 n (%)
  vital signs: Supine SBP (mmHg) Grade 2: 0 n (%)
  vital signs: Supine SBP (mmHg) Low: 1 (16.7%) n (%)
  vital signs: Supine pulse (bpm) Low: 2 (33.3%) n (%)
  ↑ AST Grade 3 (laboratory abnormality): 0 n (%)
  ↑ Amylase Grade 2 (laboratory abnormality): 1 (17) n (%)
  ↑ Cholesterol Grade 2 (laboratory abnormality): 1 (17) n (%)
  ↑ Creatine kinase Grade 2 (laboratory abnormality): 0 n (%)
  ↑ Creatine kinase Grade 4 (laboratory abnormality): 0 n (%)
  ↑ Glucose Grade 2 (laboratory abnormality): 0 n (%)
  ↑ LDL cholesterol Grade 2 (laboratory abnormality): 1 (17) n (%)
  ↑ LDL cholesterol Grade 3 (laboratory abnormality): 0 n (%)
  ↑ Lipase Grade 2 (laboratory abnormality): 0 n (%)
  ↑ Pancreatic amylase Grade 2 (laboratory abnormality): 0 n (%)
  ↑ Potassium Grade 2 (laboratory abnormality): 0 n (%)
  ↑ Sodium Grade 2 (laboratory abnormality): 0 n (%)
  ↑ Triglycerides Grade 2 (laboratory abnormality): 2 (33) n (%)
  ↑ Triglycerides Grade 3 (laboratory abnormality): 0 n (%)
  ↓ Bicarbonate Grade 2 (laboratory abnormality): 1 (17) n (%)
  ↓ GFR Grade 2 (laboratory abnormality): 0 n (%)
  ↓ Lymphocytes Grade 2 (laboratory abnormality): 0 n (%)
  ↓ Lymphocytes Grade 4 (laboratory abnormality): 0 n (%)
  ↓ Neutrophils Grade 2 (laboratory abnormality): 0 n (%)
  ↓ Phosphate Grade 2 (laboratory abnormality): 0 n (%)
Single dose 0.6 mg fasted
  Any AE (treatment-emergent): 3 (50) n (%)
  Back pain Grade 1 (treatment-emergent AE): 0 n (%)
  Chills Grade 1 (treatment-emergent AE): 0 n (%)
  Contact dermatitis Grade 1 (treatment-emergent AE): 0 n (%)
  Dizziness Grade 1 (treatment-emergent AE): 0 n (%)
  ECG actual value: Heart rate (bpm) Low: 0 n (%)
  ECG actual value: QRS (ms) High: 0 n (%)
  ECG actual value: QTcB (ms) ]450; 480]: 0 n (%)
  ECG actual value: QTcF (ms) ]450; 480]: 0 n (%)
  ECG change from reference: QTcB (ms) [30; 60]: 3 (50.0%) n (%)
  ECG change from reference: QTcF (ms) [30; 60]: 0 n (%)
  Headache Grade 1 (treatment-emergent AE): 0 n (%)
  Headache Grade 2 (treatment-emergent AE): 0 n (%)
  Hypertension Grade 1 (treatment-emergent AE): 0 n (%)
  Hypertension Grade 2 (treatment-emergent AE): 0 n (%)
  Myalgia Grade 1 (treatment-emergent AE): 0 n (%)
  Oropharyngeal pain Grade 1 (treatment-emergent AE): 1 (17) n (%)
  Pyrexia Grade 1 (treatment-emergent AE): 0 n (%)
  Pyrexia Grade 2 (treatment-emergent AE): 0 n (%)
  URTI Grade 1 (treatment-emergent AE): 0 n (%)
  lab toxicity: Amylase (U/L), upwards, Grade 1: 0 n (%)
  lab toxicity: Amylase (U/L), upwards, Grade 2: 0 n (%)
  lab toxicity: Cholesterol (mmol/L), upwards, Grade 1: 2 (33.3%) n (%)
